Earlier results in patent EP4640075A1, “ORAL POUCHED PRODUCT WITH SELF-EMULSIFYING DELIVERY SYSTEM” (Nicoventures Trading Limited, priority 2024, dated 2025).

Conditions: Values obtained from PubChem or calculated

tocopherol succinate
log(P)*: 10.2
